The record followed here is US9803021B2 (The Regents of the University of California, priority 2012, dated 2017).

Experiment [1] relates to primary myeloma cells from patients. The experiment in a line: Treatment of primary myeloma cells from patients (trypan blue / MTT). Type of experiment: cell-based, human. The settings on record: 25 nM, 72 h. As to the method: Trypan blue and MTT assays were used to determine the number of viable cells. The percentage of viable recovered cells was calculated based upon the number of viable cells recovered from DMSO-treated control cells, which was arbitrarily designated as 100%.
Percent viable cell recovery was determined by trypan blue staining, with untreated control cells designated as 100%.

Experiment [2] concerns U266. The experiment in a line: Senescence induced β-gal activity at pH 6 (C12FDG, flow cytometry). The settings on record: U266, 1 nM, 3 days. Type of experiment: cell-based, human. On the procedure:
(§1) Senescence induced β-galactosidase (β-gal) activity was detected as described previously (Debacq-Chainiaux et al. (2009) Nature Protocols, 4: 1798-1806). […] To induce lysosomal alkalinization, cells were incubated in 100 nM bafilomycin A1 (Sigma) for 1 h. Then cells were incubated for 30 min with the β-gal substrate dodecanoylaminofluorescein di-β-D-galactopyranoside (C12FDG; Invitrogen), which becomes fluorescent after cleavage by β-gal. After washing twice with cold PBS, cells were resuspended in cold PBS containing 1 mM phenylethyl thiogalactoside (PETG), a β-gal inhibitor, and analyzed by flow cytometry for C12-fluorescein.
(§2) Intracellular β-galactosidase (β-gal) activity was measured as an indicator for replicative senescence. […] After treatment, cells were incubated with 100 nM bafilomycin A1 (Sigma) for 1 hour to induce lysosomal alkalinization. Then cells were incubated for 30 minutes with the 33 μM of β-gal substrate dodecanoylaminofluorescein di-β-D-galactopyranoside (C12FDG; Invitrogen), which becomes fluorescent after cleavage to C12-fluorescein. After washing twice with cold PBS, cells were resuspended in cold PBS containing 1 mM phenylethyl thiogalactoside (PETG), a β-gal inhibitor, and analyzed by flow cytometry for C12-fluorescein.

Experiment [3] concerns ANBL-6. The experiment is described as above. Type of experiment: cell-based, human. The settings on record: ANBL-6, 1 nM, 3 days (data not shown). As to the method:
as §1, §2

The subject of experiment [4] is OCI-My5. Described as above. Type of experiment: cell-based, human. The settings on record: OCI-My5, 1 nM, 3 days (also 4, 6, 7 days). On the procedure:
as §1, §2

The next experiment has as its system OCI-My 5 cells. Description: Cell proliferation assay (3[H]-thymidine incorporation). Type of experiment: cell-based, human. The settings on record: OCI-My 5, 0.3 pM-25 nM, 3 days. As to the method:
The proliferative status of the cells was determined by measuring ^3[H]-thymidine incorporation.
A general note: Incorporation of labelled thymidine or its analogues reports DNA synthesis.

The test system of a further experiment is U266 tumors. Description: U266 xenograft model in NSG mice. To be noted: U266 s.c., 100 μg on days 14, 16, 18.
In the next experiment the test system is Daudi cells. The experiment in a line: Binding of anti-CD138 IgG to Daudi cells. More on the design: species or system human. To be noted: data not shown.
The next experiment has as its system OCI-My 5 tumors. The experiment in a line: OCI-My5 xenograft model in SCID mice. Type of experiment: in vivo, mouse. To be noted: OCI-My5 s.c., 100 μg i.v. on days 14, 16, 18. The text has this:
Eight mice were included in each group.
Each group consisted of eight mice.

For experiment [5], the system named is U266. Description: MTS assay (cell viability / metabolic activity). Type of experiment: cell-based, human. The settings on record: U266, 3 days. As to the method:
(§3) Percent cell viability was determined using MTS solution (Promega, Madison, Wis.) by measuring absorbance at 490 nm using a Synergy HT Multi-Detection Microplate Reader (BioTek Instruments, Inc., Winooski, Vt.) with untreated cells being 100%. GraphPad Prism (GraphPad Software Inc., La Jolla, Calif.) was used to analyze data by non-linear regression with the log (inhibitor) vs. the response with a variable slope with the IC50 calculated. Data are expressed as a percentage of maximum metabolic activity. The experiments were performed in triplicate.
(§4) Metabolic activity was determined using MTS solution (Promega) by measuring absorbance at 490 nm using a Synergy HT Multi-Detection Microplate Reader (BioTek Instruments Inc.) with untreated cells being 100%. GraphPad Prism (GraphPad Software Inc.) was used to analyze data by non-linear regression with the log (inhibitor) versus the response with a variable slope. Data are expressed as a percentage of maximum metabolic activity. The experiments were performed in triplicate.
In general terms: Formazan colour is commonly taken as a measure of viable cells.

Another experiment deals with NCI-H929. Description: MTS assay (cell viability / metabolic activity). Type of experiment: cell-based, human. To be noted: 3 days. As to the method:
as §3, §4

Experiment [6] concerns ANBL-6. The experiment in a line: MTS assay (cell viability / metabolic activity). Type of experiment: cell-based, human. The settings on record: ANBL-6, 3 days or 7 days. As to the method: as §3, §4
The subject of another experiment is MM1-144. The experiment in a line: MTS assay (cell viability / metabolic activity). Type of experiment: cell-based, human. To be noted: MM144 (MM1-144), 3 days. As to the method: as §3, §4
Experiment [7] has as its system OCI-My5. The experiment in a line: MTS assay (cell viability / metabolic activity). The settings on record: OCI-My5, 3 days. Type of experiment: cell-based, human. On the procedure:
as §3, §4

“Also recorded” adds a separate entry of the source.

Procedure for U266 tumors: For U266 tumors, NOD scid IL-2 receptor gamma chain knock out (NSG) mice were injected subcutaneously with 1×10^7 U226 cells and treated on days 14, 16 and 18 with 100 μg of the indicated proteins. […] Survival was monitored as well as the size of the tumors.
For U266 tumors, experiments were carried out as described above except that NOD-scid IL2rγ^null (NSG) mice were used.

In the case of “anti-CD138: Unfused human anti-CD138 IgG1 with VH and VL of antibody B-B4 [reference compound]”, the “viability of primary myeloma cells, result in words” value in [1] is “little effect”. In addition, the “β-gal activity at pH 6 (senescence), result in words” value in the experiment on U266 [2] is “no increase under any conditions”; in the experiment on ANBL-6 [3], “no increases”; in the experiment with OCI-My5 [4], “little or no increase in β-gal activity”. The “proliferation (3[H]-thymidine incorporation), result in words” value in the experiment with OCI-My 5 cells was “did not decrease the ability of the cells to proliferate”. The “survival / protection against tumor growth, result in words” value in the experiment with U266 tumors was “significant protection”. Besides, the “binding to Daudi cells” value with Daudi cells is on record as “did not bind to Daudi cells”. Moreover, the “survival / protection, result in words” value in the experiment with OCI-My 5 tumors is “increased survival slightly; also recorded: did not differ significantly from PBS treated mice”. The “cell viability / growth inhibition (MTS assay), result in words” value with U266 [5], in the experiment with NCI-H929, with ANBL-6 [6], in the experiment on MM1-144 and with OCI-My5 [7] was “no effect” each time.
